US5747456A, “Continuous low-dose administration of parathyroid hormone or its agonist” (Beth Israel Deaconess Medical Center, priority 1996, dated 1998)

Tests used:
bone growth = assay: Continuous infusion of hPTH1-34 in post-menopausal women with osteoporosis (Example 5); assay type: in vivo, human; details: continuous infusion 25 to 400 units/24 hrs by infusion pump, twelve months
Method: The anabolic efficacy of the PTH/PTHrP agonists are tested in humans (Review in Dempster D. W., et al., Endocrine Rev., 1993, 14, 690-709). To determine if continuous administration of hPTH1-34 or its agonist is effective in promoting bone growth in humans, 30 post-menopausal women with established osteoporosis based on bone-density measurements are selected. A double-blind, placebo-controlled, randomized experiment is conducted where two groups of 15 women each are either placed on placebo treatment or continuous infusion of a defined dose of hPTH1-34 (25 units to 400 units/24 hrs) using an infusion pump.
The patients prior to the study are subject to the following: complete health and physical examination, evaluation of the nutritional status (particularly of calcium intake and serum calcium), full analysis of biomarkers for bone-turnover (Riis, B. J., Amer. J. Med. 1993, 95 [Suppl 5A], 17s-21s; Delmas, P. D., Amer. J. Med., […], 91 [Suppl 5B], 59s-63s), radiology, bone mass measurements of vertebral and axial sites (Gerant, H. K., et al., Amer. J. Med., 1991, 91 [Suppl 5B], 49s-53s; Wasnich, R. D., Amer J Med, 1991, 91 [Suppl 5B], 54s-58s) and bone biopsy, to establish the baseline parameters for each individual. […]

osteoblast activity = details: intravenous infusion 0.55 U/kg/hr continuously for 24 hours, cited from earlier work

## hPTH1-34: synthetic amino-terminal fragment of PTH1-84 (human parathyroid hormone)
Bone growth
  bone mass measurements and bone biopsy: clear indication of bone growth
Osteoblast activity; humans
  blood levels of ionized calcium: increase
Osteoblast activity; within 16 hours of infusion, six osteoporotic and two normal subjects
  serum levels of collagen type I: decreased
